Values of other authors in patent US20130236544A1, “STABLE PHARMACEUTICAL COMPOSITIONS OF FESOTERODINE” (DR. REDDY'S LABORATORIES LTD., priority 2012, published 2013).
Counter-ions that a name gives are not always drawn.

solubility in water: freely soluble in water
SMILES: CC(C)C(=O)Oc1ccc(CO)cc1[C@H](CCN(C(C)C)C(C)C)c1ccccc1 [Fesoterodine fumarate, isobutyric acid 2-((R)-3-diisopropylammonium-1-phenylpropyl)-4-(hydroxymethyl) phenyl ester hydrogen fumarate]
